Experimental data published in patent publication US9273057B2 (Bristol-Myers Squibb Company, priority 2012, dated 2016).

Each compound was assayed against CK2A1 (CK2α/β) (Homo sapiens, UniProt P68400) (assay: CK2 kinase assay, CK2A1 (CK2α/β)). Conditions: Table A; read-out: CK2A1 (CK2α/β) (IC50).
Format: biochemical

Sequence of CK2A1 (CK2α/β) (P68400 whole entry, species assumed): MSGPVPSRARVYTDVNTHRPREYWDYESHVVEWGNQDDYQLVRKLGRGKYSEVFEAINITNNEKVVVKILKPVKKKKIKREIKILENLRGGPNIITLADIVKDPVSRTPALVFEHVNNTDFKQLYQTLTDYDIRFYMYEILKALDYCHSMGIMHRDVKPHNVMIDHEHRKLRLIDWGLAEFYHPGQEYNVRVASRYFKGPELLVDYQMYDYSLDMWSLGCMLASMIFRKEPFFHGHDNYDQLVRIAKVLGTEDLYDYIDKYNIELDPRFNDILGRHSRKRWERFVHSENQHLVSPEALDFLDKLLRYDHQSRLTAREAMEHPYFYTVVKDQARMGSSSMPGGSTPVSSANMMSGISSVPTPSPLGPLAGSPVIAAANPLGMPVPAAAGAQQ
Sequence of CK2A1 (CK2α/β) (P67870 whole entry partner, species assumed): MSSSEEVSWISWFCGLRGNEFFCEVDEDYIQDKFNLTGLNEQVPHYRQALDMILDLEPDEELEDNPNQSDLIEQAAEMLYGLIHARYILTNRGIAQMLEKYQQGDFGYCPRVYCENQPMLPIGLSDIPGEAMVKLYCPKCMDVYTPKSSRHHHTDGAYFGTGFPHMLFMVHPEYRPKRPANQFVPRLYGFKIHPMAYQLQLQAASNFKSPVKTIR

SMILES	IC50 [nM]
CN1CCCC12CCN(c1cc(C#N)cc(Nc3nc(NC4CC4)c4ncc(C#N)n4n3)c1Cl)C2 (racemic) [Example 25, (+/−) 2-((2-chloro-5-cyano-3-(1-methyl-1,7-diazaspiro[4.4]non-7-yl)phenyl)amino)-4-(cyclopropylamino)imidazo [2,1-f][1,2,4]triazine-7-carbonitrile]	0.49
COC(=O)N[C@H]1C[C@H](O)CN(c2cc(C#N)cc(Nc3nc(NC4CC4)c4ncc(C#N)n4n3)c2Cl)C1 (racemic) [Example 17, (+/−) methyl ((3S,5S)-1-(2-chloro-5-cyano-3-((7-cyano-4-(cyclopropylamino)imidazo [2,1-f][1,2,4]triazin-2-yl)amino)phenyl)-5-hydroxy-3-piperidinyl)carbamate]	0.59
C[C@@H](O)CN1CC(N2CCN(c3cc(C#N)cc(Nc4nc(NC5CC5)c5ncc(C#N)n5n4)c3Cl)CC2)C1 [Example 588, 2-{[2-chloro-5-cyano-3-(4-{1-[(2R)-2-hydroxypropyl]azetidin-3-yl}piperazin-1-yl)phenyl]amino}-4-(cyclopropylamino)imidazo [2,1-f][1,2,4]triazine-7-carbonitrile]	3.08
N#Cc1cc(Nc2nc(NC3CC3)c3ncc(C#N)n3n2)c(Cl)c(N2CCC(N3CC(F)(F)C3)CC2)c1 [Example 147, 2-((2-chloro-5-cyano-3-(4-(3,3-difluoro-1-azetidinyl)-1-piperidinyl)phenyl)amino)-4-(cyclopropylamino)imidazo [2,1-f][1,2,4]triazine-7-carbonitrile]	1.17
CC(C)(O)C(=O)N1CCN(c2cc(C#N)cc(Nc3nc(NC4CC4)c4ncc(C#N)n4n3)c2Cl)CC1 [Example 79, 2-((2-chloro-5-cyano-3-(4-(2-hydroxy-2-methylpropanoyl)-1-piperazinyl)phenyl)amino)-4-(cyclopropylamino) imidazo[2,1-f][1,2,4] triazine-7-carbonitrile]	0.53
CC(C)(CO)NCC(O)c1cc(C#N)cc(Nc2nc(NC3CC3)c3ncc(C#N)n3n2)c1Cl (stereo not shown) [Example 693, 2-((2-chloro-5-cyano-3-(1-hydroxy-2-((1-hydroxy-2-methylpropan-2-yl)amino)ethyl)phenyl)amino)-4-(cyclopropylamino)imidazo[2,1-f][1,2,4]triazine-7-carbonitrile]	1.1
CC(O)C1(N2CCN(c3cc(C(F)F)cc(Nc4nc(NC5CC5)c5ncc(C#N)n5n4)c3Cl)CC2)COC1 (stereo not shown) [Example 271, 2-((2-chloro-5-(difluoromethyl)-3-(4-(3-(1-hydroxyethyl)-3-oxetanyl)-1-piperazinyl)phenyl)amino)-4-(cyclopropylamino)imidazo[2,1-f][1,2,4]triazine-7-carbonitrile]	1.22
CC1(C)CC(CN2CCN(c3cc(C#N)cc(Nc4nc(NC5CC5)c5ncc(C#N)n5n4)c3Cl)CC2)O1 (stereo not shown) [Example 527, 2-((2-chloro-5-cyano-3-(4-((4,4-dimethyloxetan-2-yl)methyl)piperazin-1-yl)phenyl)amino)-4-(cyclopropylamino)imidazo[2,1-f][1,2,4]triazine-7-carbonitrile]	1.91
N#CCCN(Cc1cc(C#N)cc(Nc2nc(NC3CC3)c3ncc(C#N)n3n2)c1Cl)CC1CCCO1 (stereo not shown) [Example 474, 2-[(2-chloro-5-cyano-3-{[(2-cyanoethyl)(oxolan-2-ylmethyl)amino]methyl}phenyl)amino]-4-(cyclopropylamino)imidazo[2,1-f][1,2,4]triazine-7-carbonitrile]	1.55

The remaining lines, values ahead:

IC50 [nM]	SMILES
0.75	CCNc1nc(Nc2ccc3c(c2)c(C#N)cn3C2CCN([C@H]3COC[C@@H]3O)CC2)nn2c(C#N)cnc12 [Example 827, 2-((3-cyano-1-(1-((3S,4R)-4-hydroxytetrahydrofuran-3-yl)piperidin-4-yl)-1H-indol-5-yl)amino)-4-(ethylamino)imidazo[2,1-f][1,2,4]triazine-7-carbonitrile]
1.74	CCNc1nc(Nc2cc(C#N)cc(N3CC[C@H]4[C@H](C3)OC(=O)N4C3COC3)c2Cl)nn2c(C#N)cnc12 [Example 840, 2-((2-chloro-5-cyano-3-((3aS,7aS)-1-(oxetan-3-yl)-2-oxohexahydrooxazolo[5,4-c]pyridin-5(2H)-yl)phenyl)amino)-4-(ethylamino)imidazo[2,1-f][1,2,4]triazine-7-carbonitrile]
0.39	CN(CCNC1COC1)c1cc(Cl)c(Nc2nc(NC3CC3)c3ncc(C#N)n3n2)cc1C#N [Example 413, 2-((2-chloro-5-cyano-4-(methyl(2-(oxetan-3-ylamino)ethyl)amino)phenyl)amino)-4-(cyclopropylamino)imidazo[2,1-f][1,2,4]triazine-7-carbonitrile]
1.45	N#Cc1cc2c(c(Nc3nc(NC4CC4)c4ncc(C#N)n4n3)c1)NCCOCC(=O)N2 [Example 632, 11-((7-cyano-4-(cyclopropylamino)imidazo[2,1-f][1,2,4]triazin-2-yl)amino)-6-oxo-1,2,3,5,6,7-hexahydrobenzo[e][1,4,7]oxadiazonine-9-carbonitrile]
0.88	CCNc1nc(Nc2cc(C#N)cc(C3CCN(C)CC3)c2Cl)nn2c(C#N)cnc12 [Example 351, 2-((2-chloro-5-cyano-3-(1-methyl-4-piperidinyl)phenyl)amino)-4-(ethylamino)imidazo[2,1-f][1,2,4]triazine-7-carbonitrile]
2.68	N#Cc1cc(Nc2nc(NC3CC3)c3ncc(C#N)n3n2)c(Cl)c(C(O)C2CCNCC2)c1 (stereo not shown) [Example 654, 2-((2-chloro-5-cyano-3-(hydroxy(piperidin-4-yl)methyl)phenyl)amino)-4-(cyclopropylamino)imidazo[2,1-f][1,2,4]triazine-7-carbonitrile]
0.54	CC(C)(O)C1CN(c2cc(C#N)cc(Nc3nc(NC4CC4)c4ncc(C#N)n4n3)c2Cl)CCO1 (racemic) [Example 33, (+/−) 2-((2-chloro-5-cyano-3-(2-(1-hydroxy-1-methylethyl)-4-morpholinyl)phenyl)amino)-4-(cyclopropylamino)imidazo [2,1-f][1,2,4]triazine-7-carbonitrile]
3.66	N#Cc1cc(Nc2nc(NC3CC3)c3ncc(C#N)n3n2)c(Cl)c(N2CCN(C3CN(C(=O)C4CCCO4)C3)CC2)c1 (stereo not shown) [Example 517, 2-[(2-chloro-5-cyano-3-{4-[1-(oxolane-2-carbonyl)azetidin-3-yl]piperazin-1-yl}phenyl)amino]-4-(cyclopropylamino)imidazo[2,1-f][1,2,4]triazine-7-carbonitrile]
0.72	CCNc1nc(Nc2ccc3c(c2)c(C#N)cn3C2CCN([C@H]3CS(=O)(=O)C[C@H]3O)CC2)nn2c(C#N)cnc12 [Example 829, 2-((3-cyano-1-(1-((3R,4S)-4-hydroxy-1,1-dioxidotetrahydrothiophen-3-yl)piperidin-4-yl)-1H-indol-5-yl)amino)-4-(ethylamino)imidazo[2,1-f][1,2,4]triazine-7-carbonitrile]
1.44	CCNc1nc(Nc2ccc3c(c2)c(C#N)cn3C2CCN(C3CN(C(=O)OC)C3)CC2)nn2c(C#N)cnc12 [Example 836, methyl 3-(4-(3-cyano-5-((7-cyano-4-(ethylamino)imidazo[2,1-f][1,2,4]triazin-2-yl)amino)-1H-indol-1-yl)piperidin-1-yl)azetidine-1-carboxylate]
